Test results as given in patent US9119777B2 (MICRODOSE THERAPEUTX, INC., priority 2008, dated 2015).
Like-named read-outs stand apart in the source and are kept apart here.

How the values were obtained:
[1] = cited from earlier work
[2] = system: methacholine induced bronchoconstriction; assay: Methacholine induced bronchoconstriction after pulmonary (i.t.) dry powder delivery; assay type: in vivo, guinea pig
Excerpt: Each bar represents the mean value and the vertical lines show s.e. mean.
(§1) Each point represents the mean value and the vertical bars show s.e. mean.

[3] = system: mean arterial blood pressure and heart rate; assay: Mean arterial blood pressure and heart rate after pulmonary delivery; assay type: in vivo, guinea pig
Excerpt: as §1

[4] = cited from earlier work; remark: listed apart in the source
[5] = in vivo; cited from earlier work
[6] = Pharmacokinetic profile following dry powder insufflation; assay type: in vivo, guinea pig; settings: anaesthetized guinea pigs, dry powder insufflation of oxybutynin
[7] = system: receptors in the salivary glands; settings: cited from earlier work

**Q.** What does the source list for `CCN(CC)CC#CCOC(=O)C(O)(c1ccccc1)C1CCCCC1` (racemic) [oxybutynin, 4-diethylaminobut-2-butynyl phenylcyclohexyl-glycolate]?
**A.** Oral half life ([1]; oral): 2.5 h; Bronchoprotective effect in guinea pig model of bronchoconstriction [2]: significantly bronchoprotective effect from 0.25 to 24 hours; Effect on arterial pressure and heart rate ([3]; guinea pig model of bronchoconstriction): without a prolonged significant effect on arterial pressure and heart rate; Influence on cardiovascular conditions, compared with Tiotropium ([3]; oxybutynin xinafoate, pulmonary, first 6 hours, anaesthetized guinea pigs): did not have as significant an influence on cardiovascular conditions; pKa [4]: 8.24

**Q.** Which pKa [4] does the source give for `O=C(O)c1ccc2ccccc2c1O` [xinafoic acid] here?
**A.** 2.7

**Q.** For `CCC(=O)O[C@]1(C(=O)SCF)[C@H](C)C[C@H]2[C@@H]3C[C@H](F)C4=CC(=O)C=C[C@]4(C)[C@@]3(F)[C@@H](O)C[C@@]21C` [fluticasone propionate], which “Mean absorption time in the lungs” value [5] is on record?
**A.** 5 to 7 h

**Q.** With `CCNCC#CCOC(=O)C(O)(c1ccccc1)C1CCCCC1` (centres unmarked) [DEO, N-desethyloxybutynin] as the compound, how does the “Levels of DEO” value ([1]; oral therapy) read?
**A.** 10 to 40 ng/mL

**Q.** And the “DEO circulating concentration relative to parent compound” value ([1]; oxybutynin ER, oral)?
**A.** approximately 4 times

**Q.** And the “DEO circulating concentration relative to parent compound” value ([1]; oxybutynin IR, oral)?
**A.** approximately 10 times

**Q.** What about the “Levels of DEO” value ([1]; transdermal therapy) of the same compound?
**A.** ~3 ng/mL

**Q.** And the “Systemic levels of DEO resulting from pulmonary delivery” value [6]?
**A.** below the LOQ of the detection method

**Q.** And the “Affinity and binding duration at receptors in the salivary glands, compared with oxybutynin” value [7]?
**A.** greater affinity and binding duration

**Q.** With `CC1(C)O[C@@H]2C[C@H]3[C@@H]4CCC5=CC(=O)C=C[C@]5(C)[C@@]4(F)[C@@H](O)C[C@]3(C)[C@]2(C(=O)CO)O1` [triamcinolone acetonide] as the compound, how does the “Mean absorption time in the lungs” value [5] read?
**A.** 2.9 h
